Consider 2 compounds from patent US20110207741A1, “Activation of the Renin-Angiotensin System (RAS) and Sudden Cardiac Death” (THE BOARD OF TRUSTEES OF THE UNIVERSITY OF ILLINOIS, priority 2010, published 2011).

Each structure is given as a SMILES string. “And” between values parts separate entries of the source, which are not always exact repeats. Equal values may be shown once.

Data set [1] relates to Cx43. In words: Western blot of ventricular tissue, Cx43. Type of data set: in vivo, mouse. As for the experimental part: (§1) The animal experiments were conducted according to the National Institutes of Health (NIH) Guide for the Care and Use of Experimental Animals and were approved by the University of Illinois Institutional Animal Care and Use Committee. Mice of both sexes were treated with 1.5-mg/kg PP1 (Enzo Life Sciences, Plymouth Meeting, Pa.), a specific inhibitor of c-Src tyrosine kinase, twice weekly for 4 consecutive weeks by intraperitoneal injection (21-23). PP3 (Enzo Life Sciences) was administered intraperitoneally at the same dose (1.5 mg/kg twice weekly for 4 consecutive weeks). The treatment of all animals was initiated when the mice were 30 days old.
The mice were killed, and their hearts were excised. The ventricular tissue was homogenized in a buffer containing 20 mM of tris-(hydroxymethyl)-aminomethane (Tris-C1) (pH, 7.4), 150 mM of sodium chloride (NaCl), 2.5 mM of ethylenediamine tetraacetic acid (EDTA), 1% Triton-100, 10 μL/mL of phenylmethylsulfonyl fluoride (PMSF), 10 μL/mL of protein inhibitor cocktail (Pierce, Rockford, Ill.), and 10 μL/mL of phosphatase inhibitor cocktail II (Sigma-Aldrich, St. Louis, Mo.). Protein samples (5 to 20 μg) were separated via 10% sodium dodecyl sulfate polyacrylamide gel electrophoresis (SDS-PAGE) and were transferred to nitrocellulose membranes. The membranes were blotted with the primary antibodies against c-Src, phosphorylated (Tyr 416) c-Src, and Cx43 (Cell Signaling, Danvers, Mass.). For a loading control, the membranes were blotted with a primary antibody against glyceraldehyde-3-phosphate dehydrogenase (GAPDH; Santa Cruz Biotech, Santa Cruz, Calif.). After treatment with secondary antirabbit or antimouse antibodies, imaging was performed with enhanced chemiluminescence. The radiographic film images were scanned and analyzed with NIH ImageJ software.
Background: In western blotting, separated proteins are transferred to a membrane and probed.

In data set [2] the target is T1, phosphorylated (Tyr 416) c-Src (Mus musculus, UniProt P05480).
T1 construct: The ventricular tissue was homogenized in a buffer; from tissue; host or cells: mouse ventricular tissue (wild-type and ACE8/8 mice)
In words: Western blot of ventricular tissue, phospho-(Tyr416) c-Src. It counts as in vivo. The note with it: four weeks i.p. treatment, corrected for GAPDH. As for the experimental part:
as §1
(§2) The mice were killed, and their hearts were excised. The ventricular tissue was homogenized in a buffer containing 20 mM of tris-(hydroxymethyl)-aminomethane (Tris-C1) (pH, 7.4), 150 mM of sodium chloride (NaCl), 2.5 mM of ethylenediamine tetraacetic acid (EDTA), 1% Triton-100, 10 μL/mL of phenylmethylsulfonyl fluoride (PMSF), 10 μL/mL of protein inhibitor cocktail (Pierce, Rockford, Ill.), and 10 μL/mL of phosphatase inhibitor cocktail II (Sigma-Aldrich, St. Louis, Mo.). Protein samples (5 to 20 μg) were separated via 10% sodium dodecyl sulfate polyacrylamide gel electrophoresis (SDS-PAGE) and were transferred to nitrocellulose membranes. […] The radiographic film images were scanned and analyzed with NIH ImageJ software.

Data set [3] relates to ACE8/8 mice. In words: Electrophysiology study: VT inducibility by burst pacing. It counts as in vivo, mouse. The conditions noted are these: treated ACE8/8 mice, untreated ACE8/8 86.9%, wild-type 3.3%. The procedure:
as §1
The mice were anesthetized with an intraperitoneal injection of ketamine (100 mg/kg) and xylazine (5 mg/kg). After cutdown, a 1.1-F catheter with 0.5-mm interelectrode spacing (EPR 800, Millar Instruments, Houston, Tex.) was placed into the right jugular vein and was advanced into the right ventricle. A constant current stimulator (A320, World Precision Instruments, Sarasota, Fla.) connected to a laptop computer was used for cardiac stimulation. During the experiment, body temperature was maintained at 37° C. with a warming pad. Burst pacing at cycle lengths of 100 to 50 ms was used to test for VT inducibility. A rhythm with more than 3 consecutive ventricular beats was considered to be VT.

Data set [4] deals with Cx43. Kind of data set: Immunohistochemistry (immunostaining) for Cx43 in mouse hearts. Type of data set: in vivo. As for the experimental part: as §1
The mouse hearts were fixed in 10% formalin, after which 8-μm thick sections were blocked for 1 hour at room temperature and were then incubated with anti-Cx43 antibodies overnight at 4° C. at concentrations known to provide the best signal-to-noise ratio. The slides were reviewed with a Zeiss Axioskop microscope (Carl Zeiss, Inc, Thornwood, N.Y.), and photomicrographs with original magnification×40 were taken from the apex, the mid-left ventricle (LV), and the LV base. From each of those sites, photomicrographs were taken from the endocardium and epicardium. The Cx43 content was quantified with the use of a grid that divided the field of view into 200 squares. At the intersection points aligning with the intercalated disks, Cx43 was scored as “1” (present) or “0” (absent). The results were expressed as the percentage occupied by Cx43 in the total area examined, excluding pseudospaces. This method has been used previously to quantify levels of collagen and Cx43 in cardiac tissue (24; 25).

A further data set deals with gap junctions. Kind of data set: Functional assessment of Cx43: Lucifer yellow dye spread in intact heart muscle. It counts as in vivo, mouse. The conditions noted are these: hearts of treated ACE8/8 mice. As for the experimental part: as §1
We used an established technique for measuring Cx43 function that involves fluorescent dye introduction and diffusion in intact heart muscle (26). Fresh hearts were obtained from wild-type, ACE8/8, ACE8/8 PP1-treated, and ACE8/8 PP3-treated mice. A sample from each heart was placed in phosphate buffered saline at 37° C., the anterior surface of the LV was punctured with a 27-gauge needle, and the sample was incubated with a droplet of 0.5% Lucifer yellow (LY) and a droplet of 0.5% Texas Red Dextran (TRD) in 150 mM of LiCl solution. […] Dye spread in longitudinal and transverse directions was assessed.

In data set [5] the test system is ACE8/8 mice. In words: Kaplan-Meier survival analysis of ACE8/8 mice (sudden cardiac death). Type of data set: in vivo, mouse. The note with it: 1.5 mg/kg intraperitoneal twice weekly, 30 days of treatment and observation, untreated ACE8/8 10.2±1.5 days. As for the experimental part: Previously, a transgenic mouse model of RAS activation was developed by overexpressing ACE restricted to the heart (ACE8/8 mice) via replacement of the somatic ACE promoter with the cardiac-specific α-myosin heavy chain promoter (9). These mice (ACE8/8) are not hypertensive, have structurally normal hearts with a normal left ventricular ejection fraction (LVEF), and have no ventricular fibrosis.
as §1
The values are presented as the mean±the SEM. […] The survival data were analyzed with the Kaplan-Meier method, and the value was calculated with the log-rank test. The correlation was assessed with the Pearson correlation coefficient method.

The subject of the next data set is wild-type mice. Kind of data set: Treatment of wild-type mice with PP1 (deaths, adverse reactions). It counts as in vivo, mouse. As for the experimental part: as §1
In a further data set the target is T2, c-Src (Mus musculus, UniProt P05480).
T2 construct: The ventricular tissue was homogenized in a buffer; from tissue; host or cells: mouse ventricular tissue (wild-type and ACE8/8 mice)
In words: Western blot of ventricular tissue, total c-Src. The note with it: four weeks i.p. treatment, corrected for GAPDH. It counts as in vivo. The procedure: as §1, §2

T1 sequence (P05480 whole entry): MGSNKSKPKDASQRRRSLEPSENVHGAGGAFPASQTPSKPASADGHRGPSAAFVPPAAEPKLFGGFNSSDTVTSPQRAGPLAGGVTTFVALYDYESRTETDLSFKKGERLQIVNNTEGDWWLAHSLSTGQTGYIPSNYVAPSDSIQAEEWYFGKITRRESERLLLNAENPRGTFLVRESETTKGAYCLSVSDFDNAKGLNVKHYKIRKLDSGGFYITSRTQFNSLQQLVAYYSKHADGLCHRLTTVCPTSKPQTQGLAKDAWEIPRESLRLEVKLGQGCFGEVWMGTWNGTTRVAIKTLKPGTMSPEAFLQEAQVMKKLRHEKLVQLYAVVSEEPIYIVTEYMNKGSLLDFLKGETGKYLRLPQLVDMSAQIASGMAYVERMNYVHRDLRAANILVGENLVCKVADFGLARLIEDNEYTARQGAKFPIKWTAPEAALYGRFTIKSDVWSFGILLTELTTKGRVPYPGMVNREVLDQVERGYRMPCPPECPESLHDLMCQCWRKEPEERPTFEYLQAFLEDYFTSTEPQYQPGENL
T2 sequence (P05480 whole entry): as above

As to `Cc1ccc(-c2nn(C(C)(C)C)c3ncnc(N)c23)cc1` [PP1, 1-(1,1-dimethylethyl)-1-(4-methylphenyl)-1H-pyrazolo[3,4-d]pyrimidin-4-amine], in the data set on Cx43 [1] (ACE8/8 mice, four weeks i.p. treatment), the “increase in Cx43 protein level vs untreated ACE8/8 mice (Western blot)” value was 2.1 fold. For the same compound, the “Cx43 level relative to normal level in wild-type mice (Western blot)” value in the data set with Cx43 [1] (treated ACE8/8 mice, untreated ACE8/8 36%) is 68%. Moreover, in data set [2], the “phospho-(Tyr416) c-Src protein level, relative to untreated ACE8/8 mice” value is given as 75%. Besides, the VT inducibility rate in the data set with ACE8/8 mice [3] stood at 50%. The “increase in Cx43 level/content in ACE8/8 mouse hearts (immunostaining)” value in the data set on Cx43 [4] (vs untreated ACE8/8 mice) was 2 fold and 2.0 fold. Also, the “overall Lucifer yellow dye spread” value in the data set with gap junctions (untreated ACE8/8 0.14±0.01 mm, WT 0.21±0.02 mm) was 0.20±0.02 mm and 0.21±0.02 mm. In the data set with ACE8/8 mice [5], this compound came in with a mean survival time of 24.7 ± 0.2 days. For the same compound, the “death in treated wild-type mice” value in the data set on wild-type mice (WT mice receiving PP1 1.5 mg/kg i.p. twice weekly for 4 weeks) is recorded as “No death happened”. Besides, the “adverse reaction in treated wild-type mice” value with wild-type mice (wild-type mice, PP1 1.5 mg/kg i.p. twice weekly for 4 weeks) is “not associated with any adverse reaction”. Further, the “total c-Src protein level, relative to untreated ACE8/8 mice” value on c-Src is recorded as 58%.
With `Nc1ncnc2c1cnn2-c1ccccc1` [PP3, 1-phenyl-1H-pyrazolo[3,4-d]pyrimidin-4-amine], in the data set on Cx43 [1] (ACE8/8 mice vs untreated ACE8/8), the “effect on total Cx43 protein level (Western blot), in words” value is “did not increase”. For the same compound, the “Cx43 level, ratio of stained area for Cx43 to total field of view” value with Cx43 [4] (treated ACE8/8 mice, untreated ACE8/8 5.4±0.7%, wild-type 18.3±0.6%) is listed as 6.5+/−1%. Besides, the “effect on Cx43 level at the gap junctions (immunostaining), in words” value in the data set on Cx43 [4] (vs untreated ACE8/8 mice) was “did not increase”. For the same compound, the “effect on dye diffusion, in words” value in the data set with gap junctions is recorded as “no statistically significant effect”. For the same compound, in the data set on ACE8/8 mice [5], the mean survival time is 11.2 ± 1.2 days.
